“Also recorded” adds a separate entry of the source.
Experiments:
[1] = test system: B16F10 globin-SL8-intron (B16F10 GI) tumor; experiment: Tumor challenge, B16F10 globin-SL8-intron in immunocompetent C57BL/6 mice; format: in vivo, mouse; conditions: 18 mg/kg intraperitoneally, days 5, 10 and 15
Procedure: (A) Experimental settings. Growth of (B) sarcoma MCA205 or (C) melanoma B16F10 cells that both stably express the globin-SL8-intron construct or (D) MCA205 Wild Type (WT) or (E) B16F10 WT cells that were subcutaneously inoculated on the flank of immunocompetent C57BL/6 mice injected intraperitoneally with 12 mg/kg or 18 mg/kg of isoginkgetin at days 5, 10 and 15 after inoculation. Tumor size was assessed every 3 to 4 days until reaching the established ethical endpoints. Each line represents the tumor size in area (mm^2) of 6 mice in each group. Size in area (mm^2) of (F) MCA205 globin-SL8-intron, (G) B16F10 globin-SL8-intron, (H) MCA205 WT or (I) B16F10 WT tumors subcutaneously inoculated on the flank of immunodeficient Nu/Nu Nude mice injected intraperitoneally with 18 mg/kg of isoginkgetin at days 5, 10 and 15 after inoculation. Data are presented at the day before the endpoints are reached.
Data are given as mean ±SEM. *P<0.05, **P<0.01, ***P<0.001 (unpaired student t test). […] Tumor size was assessed every 3 to 4 days until reaching the established ethical endpoints. […]
C57B1/6J female mice are obtained from Harlan. […] Area of the tumor is recorded every 3 to 4 days until day 27. […] Results are expressed as mean ±SEM. *p<0.05, **P<0.01, ***P<0.001 (ANOVA with Tukey's multiple comparison test comparing all groups).

[2] = test system: splicing of the Globin-SL8-intron gene product in MCA205 cells; experiment: qRT-PCR of unspliced/spliced globin-SL8-intron RNA, MCA205; format: cell-based, mouse; conditions: 15 μM isoginkgetin, 35 μM IP2 or 35 μM M2P2, 48 hours
Procedure: RNA was extracted and qRT-PCR was performed with primers amplifying the unspliced (intron) and the spliced (exon) globin-SL8-intron RNA. Data are given as mean ±SEM of the ratio of 2^−ΔΔCt intron and 2^−ΔΔCt exon of at least three independent experiments. […] Data are express as mean ±SEM of the percentage of viable cells compared to the control condition of at least three independent experiments. *P<0.05, **P<0.01, ***P<0.001 (unpaired student t test).
In addition, it has been shown that cancer cells can acquire deficiencies in the splicing machinery that benefit their growth, for example by preventing the expression of tumor suppressor genes.

Structure (SMILES): COc1ccc(-c2cc(=O)c3c(OC)cc(OP(=O)([O-])[O-])c(-c4cc(-c5cc(=O)c6c(OC)cc(OP(=O)([O-])[O-])cc6o5)ccc4OC)c3o2)cc1.[Na+].[Na+].[Na+].[Na+] [IM2P2]
- tumor growth [1]: had no effect on growth
- splicing of Globin-SL8-intron RNA (ratio unspliced/spliced, qRT-PCR) [2]: has a strong impact on splicing; also recorded: strongly inhibits the splicing
